Read-outs that look alike come from different tables or passages of the source.
Columns and labels:
Assay type in all cases: binding
[1] = target: T1, XIAP His-BIR2 (124-240/C202A/C213G) (Homo sapiens, UniProt P98170, C202A/C213G); experiment: XIAP-BIR2/SMAC Peptide AlphaScreen Assay; conditions: XIAP BIR2, AlphaScreen, Table 2; read-out: BIR2 IC50
T1 construct: additions of His-BIR2 (124-240/C202A/C213G), Biotinylated SMAC peptide
Experimental: A. XIAP-BIR2/SMAC Peptide AlphaScreen Assay Assays were performed in white, flat-bottom, 384-well ProxiPlates (Perkin Elmer). […] The reaction was incubated at room temperature for 60 minutes. After 60 minutes, 2.5 μL of Alphascreen detection reagent (Perkin Elmer) was added to the reaction mixture and incubated at room temperature in the dark for 120 minutes. The Alphascreen signal generated by the reaction was detected on the Envision Plate Reader. […] Compounds were dissolved at 10 mM in dimethylsulfoxide (DMSO) and evaluated at eleven concentrations. IC50 values were derived by non-linear regression analysis.

[2] = target: N-His-Tb-BIR3(241-356, XIAP) (Homo sapiens, UniProt P98170); experiment: XIAP-BIR3 SMAC Peptide Fluorescence Polarization Assay (FPA)
N-His-Tb-BIR3(241-356, XIAP), sequence (P98170 241-356): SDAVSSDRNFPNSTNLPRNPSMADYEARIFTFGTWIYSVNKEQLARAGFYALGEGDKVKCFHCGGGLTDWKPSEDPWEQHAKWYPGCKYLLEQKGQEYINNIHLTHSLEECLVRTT

His-BIR3 (241-356, XIAP) = target: T2, His-BIR3 (241-356, XIAP) (Homo sapiens, UniProt P98170); experiment: XIAP-BIR3/SMAC Homogeneous Time Resolved Fluorescence (HTRF) Assay; conditions: Table 4
T2 construct: additions of His-BIR3 (241-356, XIAP), fluorescein labeled SMAC peptide
T2 sequence (P98170 241-356): as above

[3] = target: T3, His-BIR2-3 (125-356, C202A/C213G, XIAP) (Homo sapiens, UniProt P98170, C202A/C213G); experiment: XIAP-BIR2-3 Dimeric SMAC Peptide Homogeneous Time Resolved Fluorescence (HTRF) Assay; conditions: XIAP BIR2-3, HTRF, Table 4
T3 construct: additions of His-BIR2-3 (125-356, C202A/C213G, XIAP), fluorescein labeled dimeric SMAC peptide
T3 sequence (P98170 125-356 C202A/C213G): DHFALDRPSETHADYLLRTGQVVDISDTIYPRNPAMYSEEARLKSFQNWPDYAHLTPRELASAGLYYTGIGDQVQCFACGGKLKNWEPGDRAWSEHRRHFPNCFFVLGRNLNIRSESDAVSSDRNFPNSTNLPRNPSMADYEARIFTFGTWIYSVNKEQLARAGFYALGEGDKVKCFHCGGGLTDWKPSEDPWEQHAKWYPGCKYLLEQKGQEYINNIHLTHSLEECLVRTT

T1 sequence (P98170 124-240 C202A/C213G): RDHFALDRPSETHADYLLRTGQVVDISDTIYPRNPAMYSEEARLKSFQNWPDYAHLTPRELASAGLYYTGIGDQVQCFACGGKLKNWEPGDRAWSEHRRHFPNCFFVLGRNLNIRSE

Molecule `CN[C@@H](C)C(=O)N[C@H](C(=O)N1C[C@@H]2C[C@H]1C(=O)N[C@@H](Cc1ccccc1)C(=O)N[C@H](C(=O)O)Cc1ccc(cc1)OCc1cn(nn1)[C@H]1C[C@@H](C(=O)N[C@@H](Cc3ccccc3)C(=O)N[C@H](C(=O)O)Cc3ccc(cc3)OCc3cn2nn3)N(C(=O)[C@@H](NC(=O)[C@H](C)NC)C(C)C)C1)C(C)C` [Compound 101] has an IC50 [1] of less than 2000 nM and an IC50 [2] of 50 to 100 nM.
`CN[C@@H](C)C(=O)N[C@H](C(=O)N1C[C@@H]2C[C@H]1C(=O)N[C@@H](Cc1ccccc1)C(=O)N[C@@H](C(=O)O)Cc1ccc(cc1)NC(=O)CCc1cn(nn1)[C@H]1C[C@@H](C(=O)N[C@@H](Cc3ccccc3)C(=O)N[C@@H](C(=O)O)Cc3ccc(cc3)NC(=O)CCc3cn2nn3)N(C(=O)[C@@H](NC(=O)[C@H](C)NC)C(C)C)C1)C(C)C` [Compound 102] showed an IC50 [1] of less than 2000 nM and an IC50 [2] of 50 to 100 nM.
In the case of `CN[C@@H](C)C(=O)N[C@H](C(=O)N1CCc2cn(nn2)CCCOc2ccc(cc2)C[C@@H](C(=O)O)NC(=O)[C@H](Cc2ccccc2)NC(=O)CN(C(=O)[C@@H](NC(=O)[C@H](C)NC)C(C)C)CCc2cn(nn2)CCCOc2ccc(cc2)C[C@@H](C(=O)O)NC(=O)[C@H](Cc2ccccc2)NC(=O)C1)C(C)C` [Compound 103], the IC50 [1] is reported as 2000 to 12000 nM and the IC50 ([2]; XIAP BIR3, FPA, Table 2, read-out: BIR3 IC50) is reported as greater than 100 nM.
`CN[C@@H](C)C(=O)N[C@H](C(=O)N1C[C@@H]2C[C@H]1C(=O)N[C@@H](Cc1ccccc1)C(=O)N[C@H](C(=O)N1CCN(C)CC1)Cc1ccc(cc1)OCc1cn(nn1)[C@H]1C[C@@H](C(=O)N[C@@H](Cc3ccccc3)C(=O)N[C@H](C(=O)N3CCN(C)CC3)Cc3ccc(cc3)OCc3cn2nn3)N(C(=O)[C@@H](NC(=O)[C@H](C)NC)C(C)C)C1)C(C)C` [Compound 104] gave an IC50 [1] greater than 12000 nM and an IC50 [2] of 50 to 100 nM.
With `CCN(CC)C(=O)[C@@H]1Cc2ccc(cc2)OCc2cn(nn2)[C@H]2C[C@@H](C(=O)N[C@@H](Cc3ccccc3)C(=O)N[C@H](C(=O)N(CC)CC)Cc3ccc(cc3)OCc3cn(nn3)[C@H]3C[C@@H](C(=O)N[C@@H](Cc4ccccc4)C(=O)N1)N(C(=O)[C@@H](NC(=O)[C@H](C)NC)C(C)C)C3)N(C(=O)[C@@H](NC(=O)[C@H](C)NC)C(C)C)C2` [Compound 105] the IC50 [1] was greater than 12000 nM and the IC50 [2] was 50 to 100 nM.
Work on `CN[C@@H](C)C(=O)N[C@H](C(=O)N1C[C@@H]2C[C@H]1C(=O)N[C@@H](Cc1ccccc1)C(=O)N[C@H](C(=O)NCCN(C)C)Cc1ccc(cc1)OCc1cn(nn1)[C@H]1C[C@@H](C(=O)N[C@@H](Cc3ccccc3)C(=O)N[C@H](C(=O)NCCN(C)C)Cc3ccc(cc3)OCc3cn2nn3)N(C(=O)[C@@H](NC(=O)[C@H](C)NC)C(C)C)C1)C(C)C` [Compound 106] yielded an IC50 [1] greater than 12000 nM and an IC50 [2] of 50 to 100 nM.
For `CN[C@@H](C)C(=O)N[C@H](C(=O)N1C[C@@H]2C[C@H]1C(=O)N[C@@H](CCc1ccccc1)C(=O)N[C@H](C(=O)O)Cc1ccc(cc1)OCc1cn(nn1)[C@H]1C[C@@H](C(=O)N[C@@H](CCc3ccccc3)C(=O)N[C@H](C(=O)O)Cc3ccc(cc3)OCc3cn2nn3)N(C(=O)[C@@H](NC(=O)[C@H](C)NC)C(C)C)C1)C(C)C` [Compound 107], the IC50 [1] was less than 2000 nM and the IC50 [2] was greater than 100 nM.
`CN[C@@H](C)C(=O)N[C@@H](CC1CCCCC1)C(=O)N1C[C@@H]2C[C@H]1C(=O)N[C@@H](Cc1ccccc1)C(=O)N[C@H](C(=O)O)Cc1ccc(cc1)OCc1cn(nn1)[C@H]1C[C@@H](C(=O)N[C@@H](Cc3ccccc3)C(=O)N[C@H](C(=O)O)Cc3ccc(cc3)OCc3cn2nn3)N(C(=O)[C@H](CC2CCCCC2)NC(=O)[C@H](C)NC)C1` [Compound 109] showed an IC50 [1] of less than 2000 nM and an IC50 [2] of less than 50 nM.
`CN[C@@H](C)C(=O)N[C@H](C(=O)N1C[C@@H]2C[C@H]1C(=O)N[C@@H](Cc1cccc(C(F)(F)F)c1)C(=O)N[C@H](C(=O)O)Cc1ccc(cc1)COc1cn(nn1)[C@H]1C[C@@H](C(=O)N[C@@H](Cc3cccc(C(F)(F)F)c3)C(=O)N[C@H](C(=O)O)Cc3ccc(cc3)OCc3cn2nn3)N(C(=O)[C@@H](NC(=O)[C@H](C)NC)C(C)C)C1)C(C)C` [Compound 112] showed an IC50 [1] of 2000 to 12000 nM and an IC50 [2] of less than 50 nM.
`CN[C@@H](C)C(=O)N[C@H](C(=O)N1C[C@@H]2C[C@H]1C(=O)N[C@@H](Cc1ccc(C(F)(F)F)cc1)C(=O)N[C@H](C(=O)O)Cc1ccc(cc1)COc1cn(nn1)[C@H]1C[C@@H](C(=O)N[C@@H](Cc3ccc(C(F)(F)F)cc3)C(=O)N[C@H](C(=O)O)Cc3ccc(cc3)OCc3cn2nn3)N(C(=O)[C@@H](NC(=O)[C@H](C)NC)C(C)C)C1)C(C)C` [Compound 113] gave an IC50 [1] greater than 12000 nM and an IC50 [2] of 50 to 100 nM.
For `CN[C@@H](C)C(=O)N[C@H](C(=O)N1C[C@@H]2C[C@H]1C(=O)N[C@@H](Cc1ccccc1)C(=O)NCc1cn(nn1)[C@H]1C[C@@H](C(=O)N[C@@H](Cc3ccccc3)C(=O)NCc3cn2nn3)N(C(=O)[C@@H](NC(=O)[C@H](C)NC)C(C)C)C1)C(C)C` [Compound 116], the IC50 [1] was less than 2000 nM.
`CN[C@@H](C)C(=O)N[C@H](C(=O)N1C[C@@H]2CC1C(=O)N[C@@H](Cc1ccccc1)C(=O)N[C@H](C(=O)O)Cc1ccc(cc1)OCc1cn(nn1)[C@H]1C[C@@H](C(=O)N[C@@H](Cc3ccccc3)C(=O)NCc3cn2nn3)N(C(=O)[C@@H](NC(=O)[C@H](C)NC)C(C)C)C1)C(C)C` [Compound 135] was tested, and the IC50 [1] was less than 2000 nM.
`CN[C@@H](C)C(=O)N[C@H](C(=O)N1C[C@@H]2C[C@H]1C(=O)N[C@@H](Cc1ccc3ccccc3c1)C(=O)N[C@H](C(=O)O)Cc1ccc(cc1)OCc1ccc(cc1)-c1cn(nn1)[C@H]1C[C@@H](C(=O)N[C@@H](Cc3ccc4ccccc4c3)C(=O)N[C@H](C(=O)O)Cc3ccc(cc3)OCc3cn2nn3)N(C(=O)[C@@H](NC(=O)[C@H](C)NC)C(C)(C)C)C1)C(C)(C)C` [Compound 1000] was tested, and the IC50 [2] was 50 to 100 nM.
`CN[C@@H](C)C(=O)N[C@H](C(=O)N1C[C@@H]2C[C@H]1C(=O)N[C@@H](Cc1ccc3ccccc3c1)C(=O)N[C@H](C(=O)O)Cc1ccc(cc1)OCc1cn(nn1)[C@H]1C[C@@H](C(=O)N[C@@H](Cc3ccc4ccccc4c3)C(=O)N[C@H](c3nnn[nH]3)Cc3ccc(cc3)OCc3cn2nn3)N(C(=O)[C@@H](NC(=O)[C@H](C)NC)C(C)(C)C)C1)C(C)(C)C` [Compound 1048] was tested, and the IC50 (His-BIR3 (241-356, XIAP)) was less than 10 nM and the IC50 [3] was no more than 1 nM.
`CN[C@@H](C)C(=O)N[C@H](C(=O)N1CCN2CCn3cc(nn3)C[C@@H](C(=O)OC)NC(=O)[C@H](Cc3ccc4ccccc4c3)NC(=O)[C@@H]3CN(CCN3C(=O)[C@@H](NC(=O)[C@H](C)NC)C(C)C)CCn3cc(nn3)C[C@@H](C(=O)O)NC(=O)[C@H](Cc3ccc4ccccc4c3)NC(=O)[C@@H]1C2)C(C)C` [Compound 1049] gave an IC50 (His-BIR3 (241-356, XIAP)) greater than 100 nM and an IC50 [3] of 1 to 10 nM.
Molecule `CN[C@@H](C)C(=O)N[C@H](C(=O)N1CCN2C[C@H]1C(=O)N[C@@H](Cc1ccc3ccccc3c1)C(=O)N[C@H](C(=O)O)Cc1cn(nn1)CC(=O)N1CCN(C(=O)[C@@H](NC(=O)[C@H](C)NC)C(C)(C)C)[C@@H](C1)C(=O)N[C@@H](Cc1ccc3ccccc3c1)C(=O)N[C@H](C(=O)O)Cc1cn(nn1)CC2=O)C(C)(C)C` [Compound 1051] has an IC50 (His-BIR3 (241-356, XIAP)) greater than 100 nM and an IC50 [3] greater than 10 nM.
`CN[C@@H](C)C(=O)N[C@H](C(=O)N1C[C@@H]2C[C@H]1C(=O)N[C@@H](Cc1ccc3ccccc3c1)C(=O)N[C@H](C(=O)O)Cc1ccc(cc1)OCc1cn(nn1)[C@H]1C[C@@H](C(=O)N[C@@H](Cc3ccc4ccccc4c3)C(=O)N[C@H](C(=O)NS(=O)(=O)CCCNC(C)=O)Cc3ccc(cc3)OCc3cn2nn3)N(C(=O)[C@@H](NC(=O)[C@H](C)NC)C(C)(C)C)C1)C(C)(C)C` [Compound 1052] showed an IC50 (His-BIR3 (241-356, XIAP)) of less than 10 nM and an IC50 [3] of no more than 1 nM.

Reference: patent US20140309265A1, “MACROCYCLIC COMPOUNDS FOR INHIBITION OF INHIBITORS OF APOPTOSIS” (Ensemble Therapeutics, priority 2011, published 2014)
